{"source": "patent US6855549B1", "about": "“Methods and compositions for increasing the infectivity of gene transfer vectors” (The University of Iowa Research Foundation, priority 1998, dated 2005)", "key": {"[1]": {"tested_on": "differentiated human airway epithelia", "format": "cell-based"}, "[2]": {"tested_on": "differentiated human airway epithelial cells", "format": "cell-based"}, "[3]": {"tested_on": "rabbit tracheal epithelium", "experiment": "Tracheal transepithelial voltage (Vt) in anesthetized rabbits", "format": "in vivo", "description": "Rabbit studies. The transepithelial electrical potential difference across the rabbit tracheal epithelium (Vt) was measured using a modification of previously described methods (Zabner et al., 1996). The reference electrode was a subcutaneous needle connected with sterile normal saline solution to a silver/silver chloride pellet. Adult New Zealand white rabbits (n=4/group) were anesthetized with 32 mg/kg ketamine, 5.1 mg/kg xylazine and 0.8 mg/kg acepromazine intramuscularly and placed with the head in the dependent position. An exploring electrode (pediatric size 8 Teflon-coated latex double lumen Foley catheter, modified Ruseh, Inc., Duluth, Ga.) was inserted into the tracheal lumen via a tracheotomy incision. One lumen of the catheter was filled with sterile normal saline solution and was connected to a silver/silver chloride pellet. Voltage was measured with a voltmeter connected to a strip chart recorder. The catheter was then left in that position for the entire recording period. The solutions were administered through the second lumen in the following order: 1) Normal saline for 5 min; 2) Sterile water with 10 mM EGTA for 10 min; 3) Normal saline with 10 mM EGTA for 5 min; and 4) Normal saline with 10 mM EGTA plus 100 μM amiloride for 5 min. Measurements of Vt were read by two investigators who were blinded to the treatment received. There wre no discrepancies in readings of greater than 2 mV between the investigators. Disruption of epithelial junctions was assessed by detecting a fall in […] Vt after perfusion with the chelator, and by the loss of amiloride-sensitive Vt after perfusion with the chelator solution."}, "[4]": {"tested_on": "human bronchial epithelial cells", "format": "cell-based", "description": "Primary human airway epithelial cells were collected by enzymatic digestion of bronchial samples from lung transplants as previously described (Kondo et al., 1991; Zabner et al., 1996). Isolated airway primary cells were seeded at a density of 5×10^5 cells/cm^2 onto collagen-coated Millicell-HA culture inserts (Millipore, Bedford, Mass.). Primary cultures were grown at the air-liquid interface for more than 2 wk, at which time differentiation into a mucociliary epithelium occurs. The culture medium, used to feed only the basolateral side of the cells, contained 49% Dulbecco's modified Eagle's medium (DMEM), 49% Ham's F12, and 2% Ultraser G (BioSepra, Cedex, France).\nRecombinant AAV virus was produced by a CaPO4 co-transfection protocol and was purified through three rounds of isopycnic cesium chloride ultracentrifuigation, as previously described (Duan et al., 1997). The proviral plasmid, pCisAV.GFP3ori, was used to generate rAAV (AV.GFP3ori), which encoded the enhanced green fluorescent protein (EGFP) reporter gene under the transcriptional control of the cytomegalovirus (CVM) enhancer/promoter and simian virus 40 (SV40) polyadenylation signal (Duan et al., 1998). Recombinant viral stocks were heated at 58° C. for 60 min to inactivate contaminating helper adenovirus. Typical yields were 1×10^9 particles/μl, determined on the basis of DNA slot-blot hybridization assays against plasmid standards. The level of adenoviral contamination, as based on a second reporter assay for the recombinant adenovirus used for propagation (Ad.CMVAlkphos) (Duane et al., 1997), was less than 1 functional particle per 1×10^10 DNA particles of rAAV. Viral preparations were evaluated for the contamination of wild type AAV (wtAAV) by immunocytochemical staining of AV.GFP3ori/Ad.CMVLacZ (Duan et al., 1998)-coinfected 293 cells with anti-Rep antibodies (American Research Products, Belmont, Mass.). […] Transfection with Rep/Cap-encoding plasmids served as controls for antibody staining of Rep protein. Virus was dialyzed in phosphate-buffered saline (PBS) prior to application on primary airway cultures. […]"}, "[5]": {"tested_on": "polarized human bronchial epithelial cells", "experiment": "Transepithelial resistance of polarized bronchial cultures after hypotonic EGTA", "format": "cell-based", "settings": "3 mM EGTA-H2O, 10 min, 37° C., immediate", "description": "For the UV irradiation studies, Millicell inserts were put transiently into empty 100-mm tissue culture plates (apical side up) and exposed to 25 J/m^2 of UV light (254 nm). After irradiation, the Millicell inserts were quickly returned to plates containing Ultraser G culture medium on the basolateral side. Infections with rAAV were performed immediately following UV irradiation by application of 5×10^9 rAAV particles in 100 μl to either the apical or basolateral side of the support membrane as described above. Keratinocyte growth factor (KGF) treatment was performed at a final concentration of 100 ng/ml by addition to the basolateral culture medium for two sequential 24-hr incubations prior to AAV infection. Transient disruption of tight junctions was achieved by treating polarized cells with 3 mM EGTA in water for 10 min. After hypotonic EGTA treatment, cultures were washed twice with culture medium and infected with 5×10^9 rAAV particles in […] on either the apical or basolateral side of support membranes.\nThe transepithelial resistance of primary airway cultures was monitored with an ohm meter (EVOM; World Precision Instruments, Sarasota Fla.), as previously described (Wang et al., 1998). […] Electrodes were placed in both the mucosal and serosal compartments of the Millicell inserts and the resistance across the epithelia was recorded."}, "[6]": {"tested_on": "primary cultures of human airway epithelia", "experiment": "EGTA dose range for gene transfer on primary cultures of human airway epithelia", "format": "cell-based", "settings": "MuLV or FIV based retroviruses, MOI 10, range tested 0-96 mM, 4 hrs apical", "description": "The optimal dose range for EGTA was determined on primary cultures of human airway epithelia Gene transfer efficiency with apical application of MuLV or FIV based retrovirus (MOI 10) or adenovirus (MOI 50) was determined over a range of EGTA concentrations from 0-96 mM. The vectors were diluted 1:1 (vol/vol) with a buffer consisting of water, 10 mM HEPES and the appropriate amount of EGTA. The vector formulation was left on the apical surface of the cells for 4 hrs, then removed. Gene transfer efficiency was evaluated 3 days later by X-gal staining for beta galactosidase expression."}, "[7]": {"settings": "vector to apical surface with EGTA in vector buffer, 200 cells counted"}}, "note": "Entries after “also recorded” stand apart in the source; their conditions may differ. Like-named read-outs stand apart in the source and are kept apart here."}
{"smiles": "O=C(O)CN(CCOCCOCCN(CC(=O)O)CC(=O)O)CC(=O)O", "note": "[EGTA]", "values": [{"measurement": "effect on proliferation", "setting": "[1]; application of H2O or EGTA to epithelia, control studies", "result": "had no effect on proliferation"}, {"measurement": "β-gal positive cells", "setting": "[1]; pretreated with combination of water and EGTA 20 min, then vector, mean±SE, n=9", "result": "20.3±2.5", "unit": "%"}, {"measurement": "β-gal positive cells", "setting": "[1]; sequential water then EGTA in water 10 min each, then vector", "result": "8±1.3", "unit": "%"}, {"measurement": "share of β-gal positive cells that are basal cells", "setting": "[1]; [7]", "result": 36, "unit": "%"}, {"measurement": "share of β-gal positive cells that are ciliated cells", "setting": "[1]; [7]", "result": 28, "unit": "%"}, {"measurement": "share of β-gal positive cells that are intermediate cells", "setting": "[1]; [7]", "result": 36, "unit": "%"}, {"measurement": "β-gal positive cells", "setting": "[1]; water and EGTA 20 min, then vector containing EGTA, 3 days after delivery, mean±SE, n=9", "result": "34.3±5.4", "unit": "%"}, {"measurement": "effect of EGTA solution alone on cell proliferation (BrdU histochemistry)", "setting": "[2]", "result": "had no effect on cell proliferation"}, {"measurement": "amiloride-sensitive Vt after hypotonic/EGTA treatment", "setting": "[3]; 100 μM amiloride", "result": "there was no residual amiloride-sensitive Vt; also recorded: amiloride had no effect on Vt"}, {"measurement": "tracheal Vt", "setting": "[3]; hypotonic solution with 10 mM EGTA then saline with 10 mM EGTA", "result": "caused a significant fall in Vt"}, {"measurement": "apical transduction after EGTA, lower than maximal basolateral level", "setting": "[4]", "result": 20, "unit": "fold"}, {"measurement": "rAAV transduction, EGTA and virus on basolateral side", "setting": "[4]", "result": "no significant differences were seen in the extent of rAAV"}, {"measurement": "integrity of the monolayers by light microscopy", "setting": "[4]; 40 days after hypotonic/EGTA treatment", "result": "No significant differences were detected in the integrity of the monolayers"}, {"measurement": "decrease in transepithelial resistance", "setting": "[5]", "result": "greater than 10 fold"}, {"measurement": "EGTA concentration giving greatest gene transfer (percentage of blue cells)", "setting": "[6]", "result": "6 to 12", "unit": "mM"}]}
